We go through 15 compounds from US9499550B2 (BRISTOL-MYERS SQUIBB COMPANY, priority 2012, dated 2016).

Like-named read-outs stand apart in the source and are kept apart here. A value given as a limit tells only on which side of the number the result lay.

Experiment [1] deals with HCV genotype 1b (Con1) replicon in HUH-7 cells. Kind of experiment: HCV replicon luciferase reporter assay, genotype 1b. Format: cell-based. The note with it: Hepatitis C virus, Huh-7, 72 h, 3 days incubation. The gist of the method: (§1)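 Replicon inhibition for both genotypes was measured as Renilla luciferase signal (EnduRen, 7.5 μM final, 2 h) after 3-day, 37° C exposure of replicon-bearing HUH-7 cells in 4% FCS DMEM, 0.5% DMSO. The 1b construct carries S1179I; the 1a H77 construct carries P1496L and S2204I. Twenty-point, 3-fold dilutions were fitted four-parametrically for EC50, and CC50 was taken from multiplexed Cell Titer-Blue.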

The test system of experiment [2] is HCV genotype 1a (H77 strain) replicon in HUH-7 cells. As to the kind of experiment: HCV replicon luciferase reporter assay, genotype 1a. Format: cell-based. Particulars: Hepatitis C virus, Huh-7, 72 h, 3 days incubation. The method, boiled down:
as §1
In general terms: In antiviral work, replicon cells carry a viral genome segment that copies itself.

[3] abbreviates: HCV genotype 1b replicon luciferase, read-out: LE_1b (EC50, range).
[4] abbreviates: HCV genotype 1a replicon luciferase, read-out: LE_1a (EC50, range).
Where [5] appears, read: GETYPE1B, HCV genotype 1b replicon luciferase, read-out: LE_1b (EC50, range).
The mark [6] stands for this setting: GETYPE1A, HCV genotype 1a replicon luciferase, read-out: LE_1a (EC50, range).
The mark [7] stands for this setting: HCV genotype 1b replicon luciferase assay, range class, read-out: LE_1b (EC50, range).
[8] abbreviates: HCV genotype 1a replicon luciferase assay, range class, read-out: LE_1a (EC50, range).

In general, EC50 refers to the midpoint of the concentration-response curve.

On to `COc1ccc2c(O[C@@H]3C[C@H]4C(=O)N[C@]5(C(=O)NS(=O)(=O)C6CC6)C[C@H]5/C=C\CC[C@@H](C)C[C@@H](C)[C@H](NC(=O)OC(C)(C)C)C(=O)N4C3)nccc2c1` [Compound 1205, tert-butyl ((2R,6S,7R,9R,13aS,14aR,16aS,Z)-14a-((cyclopropylsulfonyl)carbamoyl)-2-((6-methoxyisoquinolin-1-yl)oxy)-7,9-dimethyl-5,16-dioxo-1,2,3,5,6,7,8,9,10,11,13a,14,14a,15,16,16a-hexadecahydrocyclopropa[e]pyrrolo[1,2-a][1,4]diazacyclopentadecin-6-yl)carbamate], for which the EC50 was 0.75 nM in experiment [1] (HCV genotype 1b replicon luciferase, read-out: LE_1b (EC50)); 0.51 to 1 nM in experiment [1] (setting [3]); 0.62 nM in experiment [2] (HCV genotype 1a replicon luciferase, read-out: LE_1a (EC50)); 0.51 to 1 nM in experiment [2] (setting [4]).
Turning to `COc1ccc2c(O[C@@H]3C[C@H]4C(=O)N[C@]5(C(=O)NS(=O)(=O)C6CC6)C[C@H]5/C=C\CC[C@H](C)C[C@@H](C)[C@H](NC(=O)OC(C)(C)C)C(=O)N4C3)nccc2c1` [Compound 1206, tert-butyl ((2R,6S,7R,9S,13aS,14aR,16aS,Z)-14a-((cyclopropylsulfonyl)carbamoyl)-2-((6-methoxyisoquinolin-1-yl)oxy)-7,9-dimethyl-5,16-dioxo-1,2,3,5,6,7,8,9,10,11,13a,14,14a,15,16,16a-hexadecahydrocyclopropa[e]pyrrolo[1,2-a][1,4]diazacyclopentadecin-6-yl)carbamate], the half-maximal effective concentration (EC50) in experiment [1] (setting [3]) and in experiment [2] (setting [4]) was 1.01 to 5 nM in each case.
`COc1cnc(O[C@@H]2C[C@H]3C(=O)N[C@]4(C(=O)NS(=O)(=O)C5CC5)C[C@H]4/C=C\CC[C@@H](C)C[C@@H](C)[C@H](NC(=O)OC(C)(C)C)C(=O)N3C2)c2cc(Cl)ccc12` [Compound 1207, tert-butyl ((2R,6S,7R,9R,13aS,14aR,16aS,Z)-2-((7-chloro-4-methoxyisoquinolin-1-yl)oxy)-14a-((cyclopropylsulfonyl)carbamoyl)-7,9-dimethyl-5,16-dioxo-1,2,3,5,6,7,8,9,10,11,13a,14,14a,15,16,16a-hexadecahydrocyclopropa[e]pyrrolo[1,2-a][1,4]diazacyclopentadecin-6-yl)carbamate]: the EC50 in experiment [1] (setting [3]) was 0.51 to 1 nM; in experiment [2] (setting [4]) it was 1.01 to 5 nM.
The like results for `COc1cnc(O[C@@H]2C[C@H]3C(=O)N[C@]4(C(=O)NS(=O)(=O)C5CC5)C[C@H]4/C=C\CC[C@H](C)C[C@@H](C)[C@H](NC(=O)OC(C)(C)C)C(=O)N3C2)c2cc(Cl)ccc12` [Compound 1208, tert-butyl ((2R,6S,7R,9S,13aS,14aR,16aS,Z)-2-((7-chloro-4-methoxyisoquinolin-1-yl)oxy)-14a-((cyclopropylsulfonyl)carbamoyl)-7,9-dimethyl-5,16-dioxo-1,2,3,5,6,7,8,9,10,11,13a,14,14a,15,16,16a-hexadecahydrocyclopropa[e]pyrrolo[1,2-a][1,4]diazacyclopentadecin-6-yl)carbamate] were, in that order, 1.01 to 5 nM and 5.01 to 35 nM.
Take `CC[C@@H]1C[C@H](C)CC/C=C\[C@@H]2C[C@@]2(C(=O)NS(=O)(=O)C2(C)CC2)NC(=O)[C@@H]2C[C@@H](Oc3cc(OC)nc4cc(OC)ccc34)CN2C(=O)[C@H]1NC(=O)OC(C)(C)C(F)(F)F` [Compound 1209]: the EC50 in experiment [1] (GETYPE1B, HCV genotype 1b replicon luciferase, read-out: LE_1b (EC50)) was 2 nM; in experiment [1] (setting [5]), 1.01 to 5 nM; in experiment [2] (GETYPE1A, HCV genotype 1a replicon luciferase, read-out: LE_1a (EC50)), 5.66 nM; in experiment [2] (setting [6]) it was 5.01 to 35 nM.
Turning to `CC[C@@H]1C[C@H](C)CC/C=C\[C@@H]2C[C@@]2(C(=O)NS(=O)(=O)C2(C)CC2)NC(=O)[C@@H]2C[C@@H](Oc3cc(OC)nc4cc(OC)ccc34)CN2C(=O)[C@H]1NC(=O)OC(C)(C)C(C)(F)F` [Compound 1210], the EC50 was in the range of 0.51 to 1 nM in experiment [1] (setting [5]) and 1.01 to 5 nM in experiment [2] (setting [6]).
The like results for `CC[C@@H]1C[C@H](C)CC/C=C\[C@@H]2C[C@@]2(C(=O)NS(=O)(=O)C2CC2)NC(=O)[C@@H]2C[C@@H](Oc3cc(OC)nc4cc(OC)ccc34)CN2C(=O)[C@H]1NC(=O)OC(C)(C)C(F)(F)F` [Compound 1211] were, in that order, 0.51 to 1 nM and 1.01 to 5 nM.
The like results for `CC[C@@H]1C[C@H](C)CC/C=C\[C@@H]2C[C@@]2(C(=O)NS(=O)(=O)C2CC2)NC(=O)[C@@H]2C[C@@H](Oc3cc(OC)nc4cc(OC)ccc34)CN2C(=O)[C@H]1NC(=O)OC(C)(C)C(C)(F)F` [Compound 1212] were, in that order, 0.1 to 0.5 nM and 1.01 to 5 nM.
The like results for `COc1ccc2c(O[C@@H]3C[C@H]4C(=O)N[C@]5(C(=O)NS(=O)(=O)C6(C)CC6)C[C@H]5/C=C\CC[C@@H](C)C[C@@H](C)[C@H](NC(=O)OC(C)(C)C(F)(F)F)C(=O)N4C3)cc(OC)nc2c1` [Compound 1213] were, in that order, 0.51 to 1 nM and 1.01 to 5 nM.
Take `COc1ccc2c(O[C@@H]3C[C@H]4C(=O)N[C@]5(C(=O)NS(=O)(=O)C6(C)CC6)C[C@H]5/C=C\CC[C@@H](C)C[C@@H](C)[C@H](NC(=O)OC(C)(C)C(C)(F)F)C(=O)N4C3)cc(OC)nc2c1` [Compound 1214]: the EC50 in experiment [1] (setting [5]) was in the range of 0.1 to 0.5 nM; in experiment [2] (setting [6]), 1.01 to 5 nM.
As for `C[C@@H]1CCC(O)C[C@@H]2C[C@@]2(C(=O)NS(=O)(=O)C2(C)CC2)NC(=O)[C@@H]2C[C@@H](Oc3ncc(OC4CC4)c4ccccc34)CN2C(=O)[C@@H](NC(=O)OC(C)(C)C(F)(F)F)[C@H](C)C1` (stereo partly drawn) [Compound 2001, 1,1,1-trifluoro-2-methylpropan-2-yl ((2R,6S,7R,9R,13aS,14aR,16aS)-2-((4-cyclopropoxyisoquinolin-1-yl)oxy)-12-hydroxy-7,9-dimethyl-14a-(((1-methylcyclopropyl)sulfonyl)carbamoyl)-5,16-dioxooctadecahydrocyclopropa[e]pyrrolo[1,2-a][1,4]diazacyclopentadecin-6-yl)carbamate], the half-maximal effective concentration (EC50) in experiment [1] (setting [7]) and in experiment [2] (setting [8]) was 4.82 to 103 nM throughout.
As for `C[C@@H]1CCCC(O)[C@@H]2C[C@@]2(C(=O)NS(=O)(=O)C2(C)CC2)NC(=O)[C@@H]2C[C@@H](Oc3ncc(OC4CC4)c4ccccc34)CN2C(=O)[C@@H](NC(=O)OC(C)(C)C(F)(F)F)[C@H](C)C1` (stereo partly drawn) [Compound 2002], the half-maximal effective concentration (EC50) in experiment [1] (setting [7]) and in experiment [2] (setting [8]) was 4.82 to 103 nM throughout.
For the compound `C[C@@H]1CC/C=C\[C@@H]2C[C@@]2(C(=O)NS(=O)(=O)C2(C)CC2)NC(=O)[C@@H]2C[C@@H](Oc3nccc4cc(OCC(=O)O)ccc34)CN2C(=O)[C@@H](NC(=O)OC(C)(C)C)[C@H](C)C1` [Compound 2003, 2-((1-(((2R,6S,7R,9R,13aS,14aR,16aS,Z)-6-((tert-butoxycarbonyl)amino)-7,9-dimethyl-14a-(((1-methylcyclopropyl)sulfonyl)carbamoyl)-5,16-dioxo-1,2,3,5,6,7,8,9,10,11,13a,14,14a,15,16,16a-hexadecahydrocyclopropa[e]pyrrolo[1,2-a][1,4]diazacyclopentadecin-2-yl)oxy)isoquinolin-6-yl)oxy)acetic acid], the EC50 in experiment [1] (setting [7]) is greater than 87.4 nM; in experiment [1] (HCV genotype 1b replicon luciferase assay, read-out: LE_1b (EC50)), 158 nM; in experiment [2] (setting [8]) it was greater than 87.4 nM; in experiment [2] (HCV genotype 1a replicon luciferase assay, read-out: LE_1a (EC50)), 330 nM.
Take `COc1ccc2c(O[C@@H]3C[C@H]4C(=O)N[C@]5(C(=O)NS(=O)(=O)C6(C)CC6)C[C@H]5/C=C\CC[C@H](C)C[C@@H](C)[C@H](NC(=O)OC(C)(C)C)C(=O)N4C3)nc(N(C)C)nc2c1` [Compound 3001, tert-butyl ((2R,6S,7R,9S,13aS,14aR,16aS,Z)-2-((2-(dimethylamino)-7-methoxyquinazolin-4-yl)oxy)-7,9-dimethyl-14a-(((1-methylcyclopropyl)sulfonyl)carbamoyl)-5,16-dioxo-1,2,3,5,6,7,8,9,10,11,13a,14,14a,15,16,16a-hexadecahydrocyclopropa[e]pyrrolo[1,2-a][1,4]diazacyclopentadecin-6-yl)carbamate]: the EC50 in experiment [1] (setting [7]) and in experiment [2] (setting [8]) was less than 5.46 nM in each case.
Consider `COc1ccc2c(O[C@@H]3C[C@H]4C(=O)N[C@]5(C(=O)NS(=O)(=O)C6(C)CC6)C[C@H]5/C=C\CC[C@@H](C)C[C@@H](C)[C@H](NC(=O)OC(C)(C)C)C(=O)N4C3)nc(N(C)C)nc2c1` [Compound 3002, tert-butyl ((2R,6S,7R,9R,13aS,14aR,16aS,Z)-2-((2-(dimethylamino)-7-methoxyquinazolin-4-yl)oxy)-7,9-dimethyl-14a-(((1-methylcyclopropyl)sulfonyl)carbamoyl)-5,16-dioxo-1,2,3,5,6,7,8,9,10,11,13a,14,14a,15,16,16a-hexadecahydrocyclopropa[e]pyrrolo[1,2-a][1,4]diazacyclopentadecin-6-yl)carbamate], for which the half-maximal effective concentration (EC50) in experiment [1] (setting [7]) and in experiment [2] (setting [8]) was less than 5.46 nM each time.
